These results are taken from publication PMC7178866, “In vitro inhibitory effects of ganoderic acid A on human liver cytochrome P450 enzymes” (Pharmaceutical Biology, 2020).

Data set [1] concerns the target T1, CYP3A4 (Homo sapiens, UniProt P08684).
T1 construct: CYP3A4 catalyzed reactions (testosterone 6β-hydroxylation) in pooled HLM; from tissue; host or cells: pooled human liver microsomes
In words: Inhibition of CYP3A4 (testosterone 6β-hydroxylation) in pooled human liver microsomes. Type of data set: in vitro ADME. Here is the method:
(§1) All incubations were performed in triplicate, and the mean values were utilized. The typical incubation systems contained 100 mM potassium phosphate buffer (pH 7.4), NADPH generating system (1 mM NADP^+, 10 mM glucose-6-phosphate, 1 U/mL of glucose-6-phosphate dehydrogenase, and 4 mM MgCl2), the appropriate concentration of HLMs, a corresponding probe substrate and hispidulin (or positive inhibitor for different probe reactions) in a final volume of 200 μL.
(§2) The concentration of GAA was 100 μM, and the positive inhibitor concentrations were as follows: 10 μM furafylline for CYP1A2, 1 μM ketoconazole for CYP3A4, 10 μM tranylcypromine for CYP2A6, 50 μM clomethiazole for CYP2E1, 10 μM quinidine for CYP2D6, 10 μM sulfaphenazole for CYP2C9, 50 μM tranylcypromine for CYP2C19, 5 μM montelukast for CYP2C8. Probe substrates, positive inhibitors (except for dextromethorphan and quinidine, which were dissolved in water) and GAA were dissolved in methanol, with a final concentration of 1% (v/v), and 1% neat methanol was added to the incubations without inhibitor. There was a 3 min preincubation period (at 37 °C) before the reaction was initiated by adding an NADPH-generating system. The reaction was terminated by adding a 100 μL acetonitrile (10% trichloroacetic acid for CYP2A6) internal standard mix, and the solution was placed on ice. The mixture was centrifuged at 12,000 rpm for 10 min, and an aliquot (50 μL) of supernatant was transferred for HPLC analysis. The instrument used in this study was Agilent 1260 series instrument with DAD and FLD detector, and the quantitative assay for the corresponding metabolites was performed as previously reported (Lang et al. [2017]; Zhang et al. [2017]).
(§3) GAA (100 μM) was used to initially screen for its direct inhibitory effects towards different human CYP isoforms. […]
(§4) The enzyme kinetic parameters for the probe reaction were estimated from the best fit line, using least-squares linear regression of the inverse substrate concentration versus the inverse velocity (Lineweaver-Burk plots), and the mean values were used to calculate Vmax and Km. Inhibition data from the experiments that were conducted using multiple compound concentrations were represented by Dixon plots, and inhibition constant (Ki) values were calculated using non-linear regression according to the following equation: v=(VmaxS)/(Km(1+I/Ki)+S), where I is the concentration of the compound, Ki is the inhibition constant, S is the concentration of the substrate, and Km is the substrate concentration at half the maximum velocity (Vmax) of the reaction. The mechanism of the inhibition was assessed using the Lineweaver-Burk plots and the enzyme inhibition models. […]
(Microsomes from liver hold many membrane-bound enzymes, among them those of drug oxidation.)

The target in data set [2] is T2, CYP2D6 (Homo sapiens, UniProt P10635).
T2 construct: from tissue; host or cells: pooled human liver microsomes
T2 sequence (P10635 whole entry): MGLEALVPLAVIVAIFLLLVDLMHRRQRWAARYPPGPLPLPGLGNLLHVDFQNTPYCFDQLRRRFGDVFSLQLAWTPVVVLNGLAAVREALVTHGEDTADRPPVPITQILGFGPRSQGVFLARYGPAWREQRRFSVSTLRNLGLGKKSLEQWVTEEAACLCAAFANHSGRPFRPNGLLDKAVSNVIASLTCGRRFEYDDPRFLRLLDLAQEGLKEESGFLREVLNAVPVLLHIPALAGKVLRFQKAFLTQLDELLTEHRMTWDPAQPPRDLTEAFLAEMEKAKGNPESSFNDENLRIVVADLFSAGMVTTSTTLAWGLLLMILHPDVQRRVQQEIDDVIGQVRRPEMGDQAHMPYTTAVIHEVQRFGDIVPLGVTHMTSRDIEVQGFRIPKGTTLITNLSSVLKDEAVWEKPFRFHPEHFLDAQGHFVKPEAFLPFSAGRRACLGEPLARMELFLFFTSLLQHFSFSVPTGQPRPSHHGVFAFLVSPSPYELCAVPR
In words: Inhibition of CYP2D6 (dextromethorphan O-demethylation) in pooled human liver microsomes. Format: in vitro ADME. Here is the method:
as §1, §2, §3, §4

Data set [3] concerns the target T3, CYP2E1 (Homo sapiens, UniProt P05181).
T3 construct: CYP2E1 catalyzed reactions (chlorzoxazone 6-hydroxylation) in pooled HLM; from tissue; host or cells: pooled human liver microsomes
In words: Inhibition of CYP2E1 (chlorzoxazone 6-hydroxylation) in pooled human liver microsomes. Type of data set: in vitro ADME. The method, then: as §1, §2, §3, §4

The subject of data set [4] is T4, CYP1A2.
T4 construct: to investigate the effects of GAA on different CYP isoforms in HLM; from tissue; host or cells: human liver microsomes
In words: Inhibition of CYP1A2 (phenacetin O-deethylation) in pooled human liver microsomes. The following applies: GAA 100 μM; pooled HLM. Type of data set: in vitro ADME. Here is the method: as §1
as §2, with “There was a 3 min preincubation period (at 37 °C) before the reaction was initiated by adding an NADPH-generating system. The reaction was terminated by adding a 100 μL acetonitrile (10% trichloroacetic acid for CYP2A6) internal standard mix, and the solution was placed on ice. The mixture was centrifuged at 12,000 rpm for 10 min, and an aliquot (50 μL) of supernatant was transferred for HPLC analysis.” left out, “[2017]). […]” for “[2017]).”

For data set [5], the system named is T5, CYP2A6.
T5 construct: from tissue; host or cells: human liver microsomes
In words: Inhibition of CYP2A6 (coumarin 7-hydroxylation) in pooled human liver microsomes. Type of data set: in vitro ADME. The conditions noted are these: GAA 100 μM; pooled HLM. The method, then:
as §1
as §2, with “There was a 3 min preincubation period (at 37 °C) before the reaction was initiated by adding an NADPH-generating system. The reaction was terminated by adding a 100 μL acetonitrile (10% trichloroacetic acid for CYP2A6) internal standard mix, and the solution was placed on ice. The mixture was centrifuged at 12,000 rpm for 10 min, and an aliquot (50 μL) of supernatant was transferred for HPLC analysis.” left out, “[2017]). […]” for “[2017]).”

The test system of data set [6] is T6, CYP2C9.
T6 construct: from tissue; host or cells: human liver microsomes
In words: Inhibition of CYP2C9 (diclofenac 4′-hydroxylation) in pooled human liver microsomes. The conditions noted are these: GAA 100 μM; pooled HLM. Format: in vitro ADME. Here is the method: as §1
as §2, with “There was a 3 min preincubation period (at 37 °C) before the reaction was initiated by adding an NADPH-generating system. The reaction was terminated by adding a 100 μL acetonitrile (10% trichloroacetic acid for CYP2A6) internal standard mix, and the solution was placed on ice. The mixture was centrifuged at 12,000 rpm for 10 min, and an aliquot (50 μL) of supernatant was transferred for HPLC analysis.” left out, “[2017]). […]” for “[2017]).”

For data set [7], the system named is T7, CYP2C19.
T7 construct: from tissue; host or cells: human liver microsomes
In words: Inhibition of CYP2C19 (S-mephenytoin 4-hydroxylation) in pooled human liver microsomes. Format: in vitro ADME. The conditions noted are these: GAA 100 μM; pooled HLM. Here is the method: as §1
as §2, with “There was a 3 min preincubation period (at 37 °C) before the reaction was initiated by adding an NADPH-generating system. The reaction was terminated by adding a 100 μL acetonitrile (10% trichloroacetic acid for CYP2A6) internal standard mix, and the solution was placed on ice. The mixture was centrifuged at 12,000 rpm for 10 min, and an aliquot (50 μL) of supernatant was transferred for HPLC analysis.” left out, “[2017]). […]” for “[2017]).”

Data set [8] concerns T8, CYP2C8.
T8 construct: from tissue; host or cells: human liver microsomes
In words: Inhibition of CYP2C8 (paclitaxel 6α-hydroxylation) in pooled human liver microsomes. Format: in vitro ADME. The conditions noted are these: GAA 100 μM; pooled HLM. Here is the method:
as §1
as §2, with “There was a 3 min preincubation period (at 37 °C) before the reaction was initiated by adding an NADPH-generating system. The reaction was terminated by adding a 100 μL acetonitrile (10% trichloroacetic acid for CYP2A6) internal standard mix, and the solution was placed on ice. The mixture was centrifuged at 12,000 rpm for 10 min, and an aliquot (50 μL) of supernatant was transferred for HPLC analysis.” left out, “[2017]). […]” for “[2017]).”

Data set [9] addresses T1, CYP3A4. In words: Time-dependent inhibition study, CYP3A4 in human liver microsomes. Type of data set: in vitro ADME. The method, then:
(§5) To determine whether GAA could inhibit the activity of CYP3A4, 2D6, and 2E1 in a time-dependent manner, GAA (20 μM) was pre-incubated with HLMs (1 mg/mL) in the presence of an NADPH-generating system for 30 min at 37 °C. After incubation, an aliquot (20 μL) was transferred to another incubation tube (final volume 200 μL) containing an NADPH-generating system and probe substrates whose final concentrations were approximate to Km. Then, further incubations were performed to measure the residual activity. After being incubated for 10 and 30 min, the reactions were terminated by adding a 100 μL acetonitrile internal standard mix and then placed on ice; the corresponding metabolites were determined by HPLC.
To determine the KI and Kinact values for the inactivation of CYP3A4, the incubations were conducted using higher probe substrate concentrations (approximately 4-fold Km values) and various concentrations of GAA (0–50 μM) after different preincubation times (0–30 min), with a two-step incubation scheme, as described above.

For data set [10], the target named is T2, CYP2D6. In words: Time-dependent inhibition study, CYP2D6 in human liver microsomes. The following applies: GAA 20 μM pre-incubated with HLMs and NADPH for 30 min. Format: in vitro ADME. Here is the method: as §5
The target in data set [11] is T3, CYP2E1. In words: Time-dependent inhibition study, CYP2E1 in human liver microsomes. The following applies: GAA 20 μM pre-incubated with HLMs and NADPH for 30 min. Format: in vitro ADME. Here is the method:
as §5

On the set-up of data set [12]: method as in Teekachunhatean et al. [2012]; Tseng et al. [2014]. The following applies: after oral administration of 3000 mg Lingzhi; ref Teekachunhatean et al. [2012]; Tseng et al. [2014]; cited from earlier work.

T3 sequence (P05181 whole entry): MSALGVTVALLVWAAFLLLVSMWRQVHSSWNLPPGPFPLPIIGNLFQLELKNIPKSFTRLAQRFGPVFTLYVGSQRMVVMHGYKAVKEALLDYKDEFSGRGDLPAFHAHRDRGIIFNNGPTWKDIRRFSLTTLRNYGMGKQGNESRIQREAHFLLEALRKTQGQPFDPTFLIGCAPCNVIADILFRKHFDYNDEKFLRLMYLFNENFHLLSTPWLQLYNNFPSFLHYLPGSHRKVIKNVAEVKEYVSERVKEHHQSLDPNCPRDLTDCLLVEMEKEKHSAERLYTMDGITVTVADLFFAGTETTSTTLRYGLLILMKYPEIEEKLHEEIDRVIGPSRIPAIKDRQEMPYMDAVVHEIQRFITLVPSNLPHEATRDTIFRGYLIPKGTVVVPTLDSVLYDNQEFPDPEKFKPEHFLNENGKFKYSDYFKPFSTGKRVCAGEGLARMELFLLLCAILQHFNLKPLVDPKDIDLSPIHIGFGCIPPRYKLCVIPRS
T1 sequence (P08684 whole entry): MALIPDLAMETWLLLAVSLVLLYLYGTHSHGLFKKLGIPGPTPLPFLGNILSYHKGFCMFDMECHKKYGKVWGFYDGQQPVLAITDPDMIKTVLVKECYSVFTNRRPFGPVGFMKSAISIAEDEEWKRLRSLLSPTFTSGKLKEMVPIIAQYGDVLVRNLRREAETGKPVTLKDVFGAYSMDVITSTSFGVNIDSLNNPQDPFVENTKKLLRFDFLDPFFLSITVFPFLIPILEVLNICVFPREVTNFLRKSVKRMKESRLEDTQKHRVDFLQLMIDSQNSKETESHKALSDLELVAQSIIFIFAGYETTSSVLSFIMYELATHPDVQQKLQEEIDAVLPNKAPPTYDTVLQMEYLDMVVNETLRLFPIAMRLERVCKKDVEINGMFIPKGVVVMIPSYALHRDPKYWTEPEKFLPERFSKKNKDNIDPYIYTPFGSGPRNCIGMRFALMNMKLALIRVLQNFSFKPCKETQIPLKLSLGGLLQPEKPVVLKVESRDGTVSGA

For `C[C@H](CC(=O)C[C@@H](C)[C@H]1C[C@H](O)[C@@]2(C)C3=C(C(=O)C[C@]12C)[C@@]1(C)CCC(=O)C(C)(C)[C@@H]1C[C@@H]3O)C(=O)O` [GAA, Ganoderic acid A], the IC50 (in general, the concentration at which inhibition is half-maximal) in data set [1] amounted to 15 µM; in data set [2], 21.8 µM; in [3], 28.3 µM. The results for the inhibition constant (Ki) in [1], in [2] and in [3] were 7.16 µM, 10.1 µM and 13.4 µM, respectively. Moreover, the “activity of CYP3A4, % of negative control” value in [1] (GAA 100 μM, pooled HLM, testosterone 6β-hydroxylation, remaining activity) is 14.6%. For the same compound, the “inhibition model of CYP3A4” value in data set [1] (Lineweaver-Burk plots) is “non-competitive”. Further, the “activity of CYP2D6, % of negative control” value in data set [2] (GAA 100 μM, pooled HLM, dextromethorphan O-demethylation, remaining activity) stood at 18.2%. The “inhibition model of CYP2D6” value in data set [2] (Lineweaver-Burk plots) is reported as “competitively”. The “activity of CYP2E1, % of negative control” value in [3] (GAA 100 μM, pooled HLM, chlorzoxazone 6-hydroxylation, remaining activity) was determined as 27.7%. For the same compound, in data set [3] (Lineweaver-Burk plots), the “inhibition model of CYP2E1” value is recorded as “competitively”. In data set [4], the “effect on the activity of CYP1A2” value was “did not exert effect”. The “effect on the activity of CYP2A6” value in data set [5] is “did not exert effect”. Moreover, the “effect on the activity of CYP2C9” value in [6] is listed as “did not exert effect”. For the same compound, the “effect on the activity of CYP2C19” value in data set [7] is “did not exert effect”. In data set [8], the “effect on the activity of CYP2C8” value is recorded as “did not exert effect”. For the same compound, the “time dependence of inhibition of CYP3A4” value in data set [9] (GAA 20 μM pre-incubated with HLMs and NADPH for 30 min) was “time-dependent”. Moreover, the “CYP3A4 inactivated every minute” value in data set [9] (concluded from the value of Kinact, GAA incubated with HLM) is reported as “about 4.8%”. In addition, in data set [10], the “time dependence of inhibition of CYP2D6” value is “stable with incubation time”. In addition, the “time dependence of inhibition of CYP2E1” value in data set [11] is recorded as “stable with incubation time”. Besides, in data set [12], the “maximum concentration in plasma of GAA” value is 2.24 to 10.99 ng/mL.
